These results are taken from patent US10815231B2, “[1,2,4] triazolo [1,5-a] pyridine derivative and crystalline form thereof” (WEST CHINA HOSPITAL, SICHUAN UNIVERSITY, priority 2016, dated 2020).

One experiment concerns H1299 cells. As to the kind of experiment: MTT detection method, inhibitory effect against H1299 cells. Particulars: 5000 cells/well, treatment 48 h; for The mean inhibitory ratio (%): mean of three; for The inhibitory ratio (%) for three parallel assays: single parallel assays. The format is cell-based. An excerpt:
(§1) MTT detection method was used, and MTT is a yellow compound and a dye accepting hydrogen ions, and can be used as the respiratory chain in mitochondria of viable cells. Under the action of succinate dehydrogenase and cytochrome C, the tetrazolium ring broke to form blue formanzan crystal, and the formation amount of formanzan crystal was only directly proportional to the viable counts. The formanzan crystal formed by reduction can dissolve in dimethyl sulfoxide (DMSO), and the optical density (OD) value can be determined at 490 nm using ELISA, to reflect the viable counts.
(§2) Lung cancer cell lines: A549 and H1299.
(§3) Experimental materials: lung cancer cell lines, instruments and tools for cell culture, MTT, and the compound mother liquid (10 mmol/L).
(§4) (3-1) Cell lines A549 and H1299 were recovered, and when the cells were in good conditions, namely cells grew to about 80% after one passage (i.e. the logarithmic growth phase), the cells were planked (96-well plate).
(§5) (3-2) Firstly, cells were collected, and the concentration of cell suspension was adjusted with counting chamber. Cells were seeded in 96-well plate at 1000-10000 cells/well, and the detailed cell numbers in each well were dependent on the growth rate of different cells and the action time of drugs. A549 cells were seeded at 5000 cells, while H1299 cells were also seeded at 5000 cells, 200 μl for each well (100 μl cell suspension+100 μl drug dilution at different concentration gradient). The edge wells (36) were added 200 μl culture media (for prevention of edge effect).
(§6) (3-3) After planking and adding drugs, the plate was treated at 24 h, 48 h, and 72 h, and then for coloration, each well was added 200 μl culture media containing 20 μl MTT solution (5 mg/mL). The plate was continually cultured for 1-4 hours, and the culture supernatant fluid in each well was carefully absorbed. For suspension cells, the culture supernatant fluid in each well need be centrifuged before drawing. 150 μl DMSO was added to each well, and the plate was shaken on a shaking table for 15-20 min, to allow the crystals to be completely dissolved.
(§7) (3-4) Colorimetry: The colorimetry was performed by ELISA, and the optical absorption value of each well was tested at a wavelength of 490 nm or 570 nm, and the result was recorded.
(§8) (3-5) Calculation Inhibition ratio=(the control−the drug)/the control×100%
(§9) IC50 (50% inhibitory concentration) can be calculated by spass software based on the inhibitory ratio at different concentration.

The next experiment relates to A549 cells. In words: MTT detection method, inhibitory effect against A549 cells. Particulars: 5000 cells/well, treatment 48 h; for The mean inhibitory ratio (%): mean of three; for The inhibitory ratio (%) for three parallel assays: single parallel assays. The format is cell-based.
Excerpt: as §1, §2, §3, §4, §5, §6, §7, §8, §9

The structures appear in SMILES notation. “And” between values parts separate entries of the source, which are not always exact repeats. Identical values can stand only once.

Take `Nc1nc2cccc(-c3ccc(CN4CCOCC4)cc3)n2n1` [Compound 1, 2-amino-5-[4-(4-morpholinylmethyl)phenyl]-[1,2,4]triazolo[1,5-a]pyridine]: the “The mean inhibitory ratio (%)” value in the experiment with H1299 cells (25 μm) is given as 62%; in the experiment on H1299 cells (50 μm), 95%; in the experiment on H1299 cells (100 μm), 85%; in the experiment on A549 cells (25 μm) it was 10%; in the experiment with A549 cells (50 μm), 29%; in the experiment on A549 cells (100 μm), 31%. Also, the “The inhibitory ratio (%) for three parallel assays” value (“The inhibitory ratio (%)” for short) in the experiment with H1299 cells (25 μm) was 63% and 61%; with H1299 cells (50 μm) it was 93% and 94% and 97%; in the experiment on H1299 cells (100 μm) it was 86% and 84%; in the experiment with A549 cells (25 μm), 10% and 9%; in the experiment on A549 cells (50 μm) it was 28% and 31% and 29%; with A549 cells (100 μm), 31% and 30%.
Consider `Ic1nc2cccc(-c3ccc(CN4CCOCC4)cc3)n2n1` [Compound 2, 2-iodo-5-[4-(4-morpholinylmethyl)phenyl]-[1,2,4]triazolo[1,5-a]pyridine], for which the “The mean inhibitory ratio (%)” value in the experiment with H1299 cells (50 μm) amounted to 31%; in the experiment with H1299 cells (80 μm), 33%; in the experiment with H1299 cells (100 μm) it was 31%; with A549 cells (25 μm) it was 27%; with A549 cells (40 μm), 22%; in the experiment on A549 cells (50 μm), 24%. The “The inhibitory ratio (%)” value was 32% and 31% and 29% in the experiment with H1299 cells (50 μm); 33% and 32% with H1299 cells (80 μm); 32% and 29% in the experiment with H1299 cells (100 μm); 26% and 25% and 30% with A549 cells (25 μm); 21% and 22% with A549 cells (40 μm); 23% and 27% with A549 cells (50 μm).
For `N#Cc1nc2cccc(-c3ccc(CN4CCOCC4)cc3)n2n1` [Compound 3, 2-cyano-5-[4-(4-morpholinylmethyl)phenyl]-[1,2,4]triazolo[1,5-a]pyridine], the “The mean inhibitory ratio (%)” value with H1299 cells (50 μm) is recorded as 32%; in the experiment on H1299 cells (80 μm) it was 32%; in the experiment with H1299 cells (100 μm), 34%; in the experiment with A549 cells (25 μm) it was 22%; in the experiment on A549 cells (40 μm), 22%; in the experiment on A549 cells (50 μm), 25%. Besides, the “The inhibitory ratio (%)” value in the experiment with H1299 cells (50 μm) was 33% and 32%; with H1299 cells (80 μm) it was 32%; with H1299 cells (100 μm) it was 33% and 34% and 35%; in the experiment on A549 cells (25 μm), 20% and 26%; in the experiment with A549 cells (40 μm), 22% and 24% and 20%; in the experiment on A549 cells (50 μm) it was 24% and 27%.
